Among the data in US8871728B2, “Non-peptide macrocyclic histone deacetylese (HDAC) inhibitors and methods of making and using thereof” (Georgia Tech Research Corporation, priority 2007, dated 2014) are EC50 and IC50 values, retold here.

For one experiment, the system named is lung fibroblasts. In words: Cell viability, trypan blue exclusion. It counts as cell-based. The note with it: Fibroblast; untransformed cells. The source says:
(§1) Most importantly, the compounds we less toxic to untransformed cell-lines (lung fibroblast and HMEC).
(§2) Most importantly, these compounds are less toxic to untransformed cell-lines (lung fibroblast and HMEC) that we have studied to date.

The subject of another experiment is SKMES 1. The experiment can be described thus: Cell viability, trypan blue exclusion. It is filed as cell-based. As to conditions: Homo sapiens, SK-MES-1.
Text: as §1, §2

Another experiment concerns NCI-H69. The experiment can be described thus: Cell viability, trypan blue exclusion. It counts as cell-based. The note with it: Homo sapiens.
Text: as §1, §2

In the next experiment the test system is DU 145 cells. The experiment can be described thus: Cell viability, trypan blue exclusion. It is filed as cell-based. The note with it: Homo sapiens.
Text: as §1, §2

In a further experiment the test system is HMEC. The experiment can be described thus: Cell viability, trypan blue exclusion. It is filed as cell-based. As to conditions: Homo sapiens; untransformed cells.
Text: as §1, §2

The subject of experiment [1] is HeLa nuclear extract HDAC1/2. In words: Fluor de Lys HDAC inhibition, HeLa nuclear extract. The note with it: HeLa nuclear extract; average of three independent experiments; Table 4; read-out: HDAC ½. It counts as biochemical, human. The text has this:
Fluor de Lys™ is a fluorescence based HDAC activity assay comprising a combination of fluorogenic Histone deAcetylase Lysyl substrate and a developer. The kit is a highly sensitive and convenient alternative to radiolabeled, acetylated histones or peptide/HPLC methods for the assay of histone deacetylases. This assay is based on the ability of HeLa nuclear extract, which is enriched in HDAC activity, to mediate the deacetylation of the acetylated lysine side chain of the Fluor de Lys substrate. The assay procedure requires two steps. First, incubation of the HeLa nuclear extract with the Fluor de Lys substrate results in substrate deacetylation and thus sensitizes it to the second step. In the second step, treatment of the deacetylated substrate with the Fluor de Lys developer produces a fluorophore. The substrate-developer reaction, under normal circumstances goes to completion in less than 1 min at 25° C. The kit used was the Fluorimetric Assay/Drug Discovery Kit—AK-500 Manual Fluorescent Assay System available from BIOMOL® International, Plymouth Meeting, Pa.
Each IC50 value was obtained by averaging three independent experiments.

The next experiment has as its target HDAC8 (Homo sapiens (Human), UniProt Q9BY41). In words: Fluor de Lys HDAC8 inhibition. It counts as biochemical. As to conditions: average of three independent experiments; Table 4; read-out: HDAC 8.

HDAC8, sequence (Q9BY41 whole entry): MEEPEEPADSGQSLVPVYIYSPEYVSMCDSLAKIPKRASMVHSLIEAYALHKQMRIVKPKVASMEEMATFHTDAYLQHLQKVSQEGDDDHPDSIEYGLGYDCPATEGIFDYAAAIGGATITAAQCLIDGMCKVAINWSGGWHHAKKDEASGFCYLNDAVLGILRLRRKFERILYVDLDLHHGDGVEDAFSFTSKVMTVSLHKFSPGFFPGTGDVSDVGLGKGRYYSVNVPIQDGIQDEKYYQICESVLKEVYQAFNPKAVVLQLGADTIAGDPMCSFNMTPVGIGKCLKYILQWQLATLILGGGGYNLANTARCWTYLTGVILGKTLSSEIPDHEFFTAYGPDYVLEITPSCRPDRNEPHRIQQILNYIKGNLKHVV

Consider `CC[C@H]1OC(=O)[C@H](C)[C@@H](O[C@H]2C[C@@](C)(OC)[C@@H](O)[C@H](C)O2)[C@H](C)[C@@H](O[C@@H]2O[C@H](C)C[C@H](N(C)Cc3ccc(-c4cn(CCCCCC(=O)NO)nn4)cc3)[C@H]2O)[C@](C)(OC)C[C@@H](C)C(=O)[C@H](C)[C@@H](O)[C@]1(C)O` [Compound 23, Clarithromycin-N-phenyltriazolylhexahydroxamic acid], for which the EC50 (in general, the concentration giving half of the maximal effect) with lung fibroblasts is > 10 µM; in the experiment with SKMES 1, 2.15 µM; in the experiment on NCI-H69, 2.67 µM; in the experiment on DU 145 cells it was 2.98 µM; in the experiment with HMEC it was > 10 µM. Moreover, the IC50 was 0.037 µM in experiment [1] and 3.99 µM on HDAC8.

On to `CC[C@H]1OC(=O)[C@H](C)[C@@H](O)[C@H](C)[C@@H](O[C@@H]2O[C@H](C)C[C@H](N(C)Cc3ccc(-c4cn(CCCCCC(=O)NO)nn4)cc3)[C@H]2O)[C@](C)(OC)C[C@@H](C)C(=O)[C@H](C)[C@@H](O)[C@]1(C)O` [Compound 24, Descladinose-Clarithromycin-N-phenyltriazolylhexahydroxamic acid], for which the 50% effective concentration (EC50) with lung fibroblasts was > 10 µM; in the experiment with SKMES 1, 1.95 µM; in the experiment with NCI-H69, 1.92 µM; with DU 145 cells it was 3.29 µM; in the experiment with HMEC, > 10 µM. The IC50 in experiment [1] was found to be 0.0443 µM; at HDAC8 it was 4.75 µM.

Regarding `CC[C@H]1OC(=O)[C@H](C)[C@@H](O[C@H]2C[C@@](C)(OC)[C@@H](O)[C@H](C)O2)[C@H](C)[C@@H](O[C@@H]2O[C@H](C)C[C@H](N(C)Cc3ccc(-c4cn(CCCCCCC(=O)NO)nn4)cc3)[C@H]2O)[C@](C)(OC)C[C@@H](C)C(=O)[C@H](C)[C@@H](O)[C@]1(C)O` [Compound 25, Clarithromycin-N-phenyltriazolylheptahydroxamic acid], the half-maximal effective concentration (EC50) with lung fibroblasts was > 10 µM; with SKMES 1 it was 1.33 µM; with NCI-H69, 1.45 µM; in the experiment on DU 145 cells it was 1.12 µM; in the experiment with HMEC, > 10 µM. The results for the IC50 (in experiment [1]; at HDAC8) were 0.00409 µM and 1.89 µM, respectively.

On to `CC[C@H]1OC(=O)[C@H](C)[C@@H](O)[C@H](C)[C@@H](O[C@@H]2O[C@H](C)C[C@H](N(C)Cc3ccc(-c4cn(CCCCCCC(=O)NO)nn4)cc3)[C@H]2O)[C@](C)(OC)C[C@@H](C)C(=O)[C@H](C)[C@@H](O)[C@]1(C)O` [Compound 26, Descladinose-Clarithromycin-N-phenyltriazolylheptahydroxamic acid], for which the EC50 with lung fibroblasts is > 10 µM; in the experiment on SKMES 1, 1.28 µM; in the experiment on NCI-H69 it was 1.49 µM; in the experiment on DU 145 cells it was 1.05 µM; with HMEC, > 10 µM. Besides, the IC50 turned out to be 0.00187 µM in experiment [1] and 1.39 µM on HDAC8.

`CC[C@H]1OC(=O)[C@H](C)[C@@H](O[C@H]2C[C@@](C)(OC)[C@@H](O)[C@H](C)O2)[C@H](C)[C@@H](O[C@@H]2O[C@H](C)C[C@H](N(C)Cc3ccc(-c4cn(CCCCCCCC(=O)NO)nn4)cc3)[C@H]2O)[C@](C)(OC)C[C@@H](C)C(=O)[C@H](C)[C@@H](O)[C@]1(C)O` [Compound 27, Clarithromycin-N-Phenyltriazolyloctahydroxamic acid]: the EC50 is > 10 µM with lung fibroblasts; 4.89 µM with SKMES 1; 5.67 µM in the experiment with NCI-H69; 6.97 µM in the experiment with DU 145 cells; > 10 µM with HMEC. The IC50 in experiment [1] was found to be 0.0556 µM; at HDAC8, 5.88 µM.

`CC[C@H]1OC(=O)[C@H](C)[C@@H](O)[C@H](C)[C@@H](O[C@@H]2O[C@H](C)C[C@H](N(C)Cc3ccc(-c4cn(CCCCCCCC(=O)NO)nn4)cc3)[C@H]2O)[C@](C)(OC)C[C@@H](C)C(=O)[C@H](C)[C@@H](O)[C@]1(C)O` [Compound 28, Descladinose-Clarithromycin-N-Phenyltriazolyloctahydroxamic acid]: the EC50 in the experiment with lung fibroblasts was > 10 µM; with SKMES 1 it was 4.45 µM; with NCI-H69, 5.09 µM; with DU 145 cells, 5.78 µM; in the experiment on HMEC, > 10 µM. The values for the IC50 (in experiment [1]; on HDAC8) were 0.123 µM and 4.42 µM, respectively.
